Experimental data as given in article PMC7617869, “Molecular glues that inhibit deubiquitylase activity and inflammatory signaling” (Nature Structural & Molecular Biology, 2025).
Several values for one entry are separate records, joined by “and”; a condition that tells them apart may be missing. Identical values can stand only once.

Tests used:
Format in all cases: cell-based, human
[1] = test system: CXCL10 secretion in SSc PBMCs; experiment: SSc PBMC CXCL10 ELISA, unstimulated; settings: for CXCL10 secretion: basal, nonstimulated SSc PBMCs, 16 h
Procedure: (§1) PBMCs in vitro experiments
(§2) Peripheral blood mononuclear cells (PBMCs) from healthy and SSc donors were separated using density gradient method (Leucosep™, Greiner Bio-One International) from EDTA anticoagulated peripheral blood; isolated cells were washed twice by PBS. PBMCs were then incubated in RPMI1640 […]
(§3) For healthy PBMCs, cells were stimulated with 20 ng/mL of IFN (+/- compounds or DMSO). For SSc PBMCs, cells were in basal conditions with no additional IFN stimulation. Cells were centrifuged at 300 g for 10 minutes. Supernatant was removed and subjected to R&D Systems DY266 Human CXCL10/IP-10 DuoSet ELISA (Biotechne) in duplicates, according to manufacturer’s guidance. Concentration of CXCL10 was determined according to a 4-parameter

[2] = test system: ISG expression in healthy control PBMCs; experiment: Healthy PBMC type I IFN signaling gene expression array, IFNα2-stimulated; settings: IFNα2 20 ng/mL, 2 µM, 16 h
Procedure: (§4) NEM). Cell lysates were clarified by centrifugation at 15,000 g for 10 minutes at 4 °C. Clarified lysates were pre-cleared with control uncoupled agarose beads (UM400, LifeSensors) for 30 minutes on a rotator at 4 °C followed by centrifugation at 5,000 g for 2 minutes. Equal amount of pre-cleared lysates from individual samples were incubated with 20 µL Agarose-TUBE beads (pre-equilibrated with 1X Tris-buffered saline (TBS)) overnight on a rotator at 4 °C. Beads were collected by centrifugation at 5,000 g for 2 minutes at RT followed by four stringent washes with 1X TBST (TBS, 0.1% Tween-20). TUBE-pulldown proteins were eluted by boiling Agarose-TUBE beads in 2X LDS sample buffer supplemented with […] DTT for 15 minutes. Eluted proteins were resolved on NuPAGE™ 4–12% Bis–Tris gel followed by Western blotting using anti-IFNAR1 antibody (ab124764, Abcam).
as §1, §2
For healthy PBMCs, cells were stimulated with 20 ng/mL of IFN (+/- compounds or DMSO). […] Concentration of CXCL10 was determined according to a 4-parameter logistic regression standard curve. […]
For Type I IFN signalling analysis, the human IFN I RT2 Profiler PCR Array (Qiagen, PAMM-016ZE) was performed on available RNA from healthy (n=3) and SSc (n=9) donors. […] Relative expression for each gene was determined, firstly by ∆CT calculated using the geometric mean of 4 housekeeping genes (ACTB, GAPDH, HPRT1, RPLP0), followed by 2^(-∆CT), and expressed as fold change to control, according to manufacturer’s guidance. IFN2α-induced ISGs in healthy donors were determined using a Student’s t-test (two-tail distribution and equal variances) on the triplicate fold change in 2^(-ΔCT) values between […]
(§5) R Foundation for Statistical Computing). The IFN2α inducible genes determined in healthy donors […]

[3] = test system: IFNAR1 ubiquitylation in MCF10A cells; experiment: TUBE pull-down of ubiquitylated IFNAR1 in MCF10A cells; set-up: Blot Mean, Background substracted: unit not given here; settings: for IFNAR1 ubiquitylation: MCF10A, IFNα2 50 ng/mL, 5 µM, compared to DMSO, AP-5-145 and FX-171-A
Procedure: Tandem ubiquitin binding entity (TUBE) pull -down assay
The TUBE pull -down experiment was performed according to the manufacturer’s (UM401: TUBE 1 Agarose; LifeSensors) protocol with modifications. MCF10A cells (~20 x10 6) were pre -treated with the […] inhibitor panel (5 µM) or DMSO vehicle control for 1 hour followed by addition of recombinant IFNα2 (50 ng/m L, 592702, BioLegend). Following 1 hour incubation with IFNα2, cells were lysed in cell lysis buffer (50 mM Tris -HCl, pH 7.5, 0.15 M NaCl, 1 mM EDTA, 1% NP -40, 10% glycerol, 10 mM […]
as §4, §1, §2
as §3, with “4-parameter logistic regression standard curve. RNA was extracted from cell pellets using TRIzol™ (ThermoFisher Scientific, Waltham, MA) and processed using Quick-RNA Miniprep Kit (Zymo Research) as per the manufacturer’s instruction.” for “4-parameter”
For Type I IFN signalling analysis, the human IFN I RT2 Profiler PCR Array (Qiagen, PAMM-016ZE) was performed on available RNA from healthy (n=3) and SSc (n=9) donors. RNA was converted to cDNA using RT2 First Strand Kit (Qiagen). Next, the cDNA was mixed with RT2 SYBR Green Mastermix (Qiagen, Venlo). Successful PCR performance was confirmed by assay tests for genomic DNA contamination, RNA sample quality, as well as single melt curve determination and <35 Ct for each gene, leading to validated gene expression of 67 genes. Relative expression for each gene was determined, firstly by ∆CT calculated using the geometric mean of 4 housekeeping genes (ACTB, GAPDH, HPRT1, RPLP0), followed by 2^(-∆CT), and expressed as fold change to control, according to manufacturer’s guidance. IFN2α-induced ISGs in healthy donors were determined using a Student’s t-test (two-tail distribution and equal variances) on the triplicate fold change in 2^(-ΔCT) values between […]
donors). Heatmaps were generated using the “pheatmap” function in R (v4.0.2) and RStudio (v1.3.1093) applying row scaling to standardise the expression data across samples (R core team 2020.
as §5
171-C. To account for Type I IFN signalling heterogeneity across samples, the mean 2^(-∆CT) for each […]
relative gene expression, illustrated as a fold change and visualised in log2. The Type I IFN signalling array data for the patient samples is included in Source Data Figure 6, Extended Data Fig. 9.

[4] = test system: CXCL10 secretion in healthy PBMCs; experiment: Healthy PBMC CXCL10 ELISA, IFNα2-stimulated
Procedure: as §1, §2, §3

[5] = TUBE pull-down IFNAR1 blot densitometry, biological replicates 1-3

SMILES	CXCL10, SSc donor PBMCs (Fig. 6d) ([1]; SSc donor ID 68)	CXCL10, SSc donor PBMCs (Fig. 6d) ([1]; SSc donor ID 78)	CXCL10, SSc donor PBMCs (Fig. 6d) ([1]; SSc donor ID 79)	CXCL10, SSc donor PBMCs (Fig. 6d) ([1]; SSc donor ID 142)	CXCL10, SSc donor PBMCs (Fig. 6d) ([1]; SSc donor ID 205)	CXCL10, SSc donor PBMCs (Fig. 6d) ([1]; SSc donor ID 219)	CXCL10, SSc donor PBMCs (Fig. 6d) ([1]; SSc donor ID 244)	CXCL10 secretion [1]	IFN-induced ISG expression (in words) [2]	IFNAR1 ubiquitylation [3]	Blot Mean, Background substracted [3, 5]	CXCL10, healthy donor PBMCs (Fig. 6c) ([4]; Healthy donor HC1)	CXCL10, healthy donor PBMCs (Fig. 6c) ([4]; Healthy donor HC2)	CXCL10, healthy donor PBMCs (Fig. 6c) ([4]; Healthy donor HC3)	number of the 34 IFN-upregulated ISGs suppressed compared to AP-5-145 [2]	Fold Change ([3]; TUBE pull-down IFNAR1 blot densitometry, relative to DMSO = 1, biological replicates 1-3)
O=C(NC1C2CNCC21)c1nn(C(=O)c2c(Cl)cccc2Cl)cc1NC(=O)c1c(Cl)cccc1Cl (centres unmarked) [FX-171-C]	72.6224	6.824	0	86.6599	108.154	48.1818	0	reduced CXCL10 secretion	less reduction in ISG expression	elevated levels of IFNAR1 ubiquitylation	52.149 and 49.341 and 95.856	77.343	68.1378	64.5563		
O=C(NC1CCNCC1)c1nn(C(=O)c2c(Cl)cccc2Cl)cc1NC(=O)c1c(Cl)cccc1Cl [JMS-175-2]	66.733	0	0	7.1246	83.3318	3.3086	0	reduced CXCL10 secretion		elevated levels of IFNAR1 ubiquitylation	63.299 and 57.607 and 102.609	63.2851	45.1027	43.5189	13	
Cn1cc(NC(=O)c2c(Cl)cccc2Cl)c(C(=O)NC2CCN(C(=O)c3c(Cl)cccc3Cl)CC2)n1 [AP-5-145]	80	67.741	66.2158	86.6322	91.7468	90.6622	57.7808		no difference in ISG expression profile		48.742 and 43.008 and 72.446	89.7308	123.351	106.128		1.205 and 1.413 and 1.158
